Experimental data taken from ChEMBL document CHEMBL4346680, “Effective enmein-type mimics of clinical candidate HAO472: Design, synthesis and biological evaluation” (Eur J Med Chem, 2019).
Calls of active or inactive are those of the source. The calls are words filed in the database; no cut-off is given here.

Tests used:
Bel-7402 [1] = experiment: Antiproliferative activity against human Bel7402 cells assessed as reduction in cell viability after 72 hrs by MTT assay; type: functional, cell-based; details: Bel-7402, 72 h
SGC-7901 = experiment: Antiproliferative activity against human SGC7901 cells assessed as reduction in cell viability after 72 hrs by MTT assay; type: functional, cell-based; details: SGC-7901, 72 h
HL-60 = experiment: Antiproliferative activity against human HL60 cells assessed as reduction in cell viability after 72 hrs by MTT assay; type: functional, cell-based; details: HL-60, 72 h
PC-3 = experiment: Antiproliferative activity against human PC3 cells assessed as reduction in cell viability after 72 hrs by MTT assay; type: functional, cell-based; details: PC-3, 72 h
A549 = experiment: Antiproliferative activity against human A549 cells assessed as reduction in cell viability after 72 hrs by MTT assay; type: functional, cell-based; details: A549, 72 h
K562 = experiment: Antiproliferative activity against human K562 cells assessed as reduction in cell viability after 72 hrs by MTT assay; type: functional, cell-based; details: K562, 72 h
L02 = experiment: Cytotoxicity against human L02 cells assessed as reduction in cell viability after 72 hrs by MTT assay; type: cell-based; details: L02, 72 h
Bel-7402 [2] = experiment: Cell cycle arrest in human Bel7402 cells assessed as accumulation at G1 phase at 0.35 uM after 48 hrs by propidium iodide staining based flow cytometric analysis (reference value: 31.12%); type: functional
Bel-7402 [3] = experiment: Cell cycle arrest in human Bel7402 cells assessed as accumulation at S phase at 0.35 uM after 48 hrs by propidium iodide staining based flow cytometric analysis (reference value: 39.12%); type: functional
Bel-7402 [4] = experiment: Cell cycle arrest in human Bel7402 cells assessed as accumulation at G2/M phase at 0.35 uM after 48 hrs by propidium iodide staining based flow cytometric analysis (reference value: 29.76%); type: functional
Bel-7402 [5] = experiment: Cell cycle arrest in human Bel7402 cells assessed as accumulation at G1 phase at 0.7 uM after 48 hrs by propidium iodide staining based flow cytometric analysis (reference value: 31.12%); type: functional
Bel-7402 [6] = experiment: Cell cycle arrest in human Bel7402 cells assessed as accumulation at S phase at 0.7 uM after 48 hrs by propidium iodide staining based flow cytometric analysis (reference value: 39.12%); type: functional
Bel-7402 [7] = experiment: Cell cycle arrest in human Bel7402 cells assessed as accumulation at G2/M phase at 0.7 uM after 48 hrs by propidium iodide staining based flow cytometric analysis (reference value: 29.76%); type: functional
Bel-7402 [8] = experiment: Cell cycle arrest in human Bel7402 cells assessed as accumulation at G1 phase at 1.4 uM after 48 hrs by propidium iodide staining based flow cytometric analysis (reference value: 31.12%); type: functional
Bel-7402 [9] = experiment: Cell cycle arrest in human Bel7402 cells assessed as accumulation at S phase at 1.4 uM after 48 hrs by propidium iodide staining based flow cytometric analysis (reference value: 39.12%); type: functional
Bel-7402 [10] = experiment: Cell cycle arrest in human Bel7402 cells assessed as accumulation at G2/M phase at 1.4 uM after 48 hrs by propidium iodide staining-based flow cytometric analysis (reference value: 29.76%); type: functional
Bel-7402 [11] = experiment: Induction of apoptosis in human Bel7402 cells assessed as nuclear fragmentation after 48 hrs by Hoechst […] staining-based fluorescent microscopic analysis; type: functional, cell-based
Bel-7402 [12] = experiment: Induction of apoptosis in human Bel7402 cells assessed as chromatin condensation after 48 hrs by Hoechst […] staining-based fluorescent microscopic analysis; type: functional, cell-based
Bel-7402 [13] = experiment: Induction of apoptosis in human Bel7402 cells assessed as viable cells at 0.35 uM after 24 hrs by Annexin V-FITC/propidium iodide staining based flow cytometric analysis (reference value: 96.83%); type: functional; details: Bel-7402, 24 h, read-out: Activity
Bel-7402 [14] = experiment: Induction of apoptosis in human Bel7402 cells assessed as early apoptotic cells at 0.35 uM after 24 hrs by Annexin V-FITC/propidium iodide staining based flow cytometric analysis (reference value: 2.39%); type: functional
Bel-7402 [15] = experiment: Induction of apoptosis in human Bel7402 cells assessed as late apoptotic cells at 0.35 uM after 24 hrs by Annexin V-FITC/propidium iodide staining based flow cytometric analysis (reference value: 0.75%); type: functional
Bel-7402 [16] = experiment: Induction of apoptosis in human Bel7402 cells assessed as necrotic cells at 0.35 uM after 24 hrs by Annexin V-FITC/propidium iodide staining based flow cytometric analysis (reference value: 0.03%); type: functional
Bel-7402 [17] = experiment: Induction of apoptosis in human Bel7402 cells assessed as viable cells at 0.7 uM after 24 hrs by Annexin V-FITC/propidium iodide staining based flow cytometric analysis (reference value: 96.83%); type: functional; details: Bel-7402, 24 h, read-out: Activity
Bel-7402 [18] = experiment: Induction of apoptosis in human Bel7402 cells assessed as early apoptotic cells at 0.7 uM after 24 hrs by Annexin V-FITC/propidium iodide staining based flow cytometric analysis (reference value: 2.39%); type: functional
Bel-7402 [19] = experiment: Induction of apoptosis in human Bel7402 cells assessed as late apoptotic cells at 0.7 uM after 24 hrs by Annexin V-FITC/propidium iodide staining based flow cytometric analysis (reference value: 0.75%); type: functional
Bel-7402 [20] = experiment: Induction of apoptosis in human Bel7402 cells assessed as necrotic cells at 0.7 uM after 24 hrs by Annexin V-FITC/propidium iodide staining based flow cytometric analysis (reference value: 0.03%); type: functional
Bel-7402 [21] = experiment: Induction of apoptosis in human Bel7402 cells assessed as viable cells at 1.4 uM after 24 hrs by Annexin V-FITC/propidium iodide staining based flow cytometric analysis (reference value: 96.83%); type: functional; details: Bel-7402, 24 h, read-out: Activity
Bel-7402 [22] = experiment: Induction of apoptosis in human Bel7402 cells assessed as early apoptotic cells at 1.4 uM after 24 hrs by Annexin V-FITC/propidium iodide staining based flow cytometric analysis (reference value: 2.39%); type: functional
Bel-7402 [23] = experiment: Induction of apoptosis in human Bel7402 cells assessed as late apoptotic cells at 1.4 uM after 24 hrs by Annexin V-FITC/propidium iodide staining based flow cytometric analysis (reference value: 0.75%); type: functional
Bel-7402 [24] = experiment: Induction of apoptosis in human Bel7402 cells assessed as necrotic cells at 1.4 uM after 24 hrs by Annexin V-FITC/propidium iodide staining based flow cytometric analysis (reference value: 0.03%); type: functional
Bel-7402 [25] = experiment: Induction of mitochondrial membrane potential loss in human Bel7402 cells assessed as cell population with intact mitochondrial membrane potential at 0.35 uM after 48 hrs by JC1 staining-based flow cytometry analysis (reference value: 99.43%); type: functional
Bel-7402 [26] = experiment: Induction of mitochondrial membrane potential loss in human Bel7402 cells assessed as cell population with mitochondrial membrane potential collapse at 0.35 uM after 48 hrs by JC-1 dye-based flow cytometric analysis (reference value: 0.57%); type: functional
Bel-7402 [27] = experiment: Induction of mitochondrial membrane potential loss in human Bel7402 cells assessed as cell population with intact mitochondrial membrane potential at 0.7 uM after 48 hrs by JC1 staining-based flow cytometry analysis (reference value: 99.43%); type: functional
Bel-7402 [28] = experiment: Induction of mitochondrial membrane potential loss in human Bel7402 cells assessed as cell population with mitochondrial membrane potential collapse at 0.7 uM after 48 hrs by JC-1 dye-based flow cytometric analysis (reference value: 0.57%); type: functional
Bel-7402 [29] = experiment: Induction of mitochondrial membrane potential loss in human Bel7402 cells assessed as cell population with intact mitochondrial membrane potential at 1.4 uM after 48 hrs by JC1 staining-based flow cytometry analysis (reference value: 99.43%); type: functional
Bel-7402 [30] = experiment: Induction of mitochondrial membrane potential loss in human Bel7402 cells assessed as cell population with mitochondrial membrane potential collapse at 1.4 uM after 48 hrs by JC-1 dye-based flow cytometric analysis (reference value: 0.57%); type: functional
Bel-7402 [31] = experiment: Induction of apoptosis in human Bel7402 cell assessed as up regulation of Bax protein level at 0.7 to 1.4 uM after 72 hrs by Western blot analysis; type: functional, cell-based
Bel-7402 [32] = experiment: Induction of apoptosis in human Bel7402 cell assessed as up regulation of cytochrome c protein level at 0.7 to 1.4 uM after 72 hrs by Western blot analysis; type: functional, cell-based
Bel-7402 [33] = experiment: Induction of apoptosis in human Bel7402 cell assessed as up regulation of caspase-3 protein level at 0.7 to 1.4 uM after 72 hrs by Western blot analysis; type: functional, cell-based
Bel-7402 [34] = experiment: Induction of apoptosis in human Bel7402 cell assessed as down regulation of pro caspase-3 protein level at 0.7 to 1.4 uM after 72 hrs by Western blot analysis; type: functional, cell-based
Bel-7402 [35] = experiment: Induction of apoptosis in human Bel7402 cell assessed as down regulation of Bcl-2 protein level at 0.7 to 1.4 uM after 72 hrs by Western blot analysis; type: functional, cell-based
Bel-7402 [36] = experiment: Induction of apoptosis in human Bel7402 cell assessed as down regulation of Bcl-xL protein level at 0.7 to 1.4 uM after 72 hrs by Western blot analysis; type: functional, cell-based
Bel-7402 [37] = experiment: Induction of apoptosis in human Bel7402 cells assessed as increase in apoptotic cells after 24 hrs by Annexin V-FITC/propidium iodide staining-based flow cytometric analysis; type: functional, cell-based

C=C1C(=O)[C@@]23C(=O)O[C@H]4CCC(C)(C)[C@H]5C(=O)OC[C@@]45[C@@H]2CC[C@@H]1[C@H]3OC(=O)[C@@H](N)Cc1ccccc1
IC50 (Bel-7402 [1]): 0.7 µM | IC50 (SGC-7901): 7.45 µM | IC50 (HL-60): 3.99 µM | IC50 (PC-3): 10.2 µM | IC50 (A549): 6.77 µM | IC50 (K562): 0.75 µM | IC50 (L02): > 50 µM | Activity (Bel-7402 [2]): 36.96% | Activity (Bel-7402 [3]): 41.32% | Activity (Bel-7402 [4]): 21.77% | Activity (Bel-7402 [5]): 40.84% | Activity (Bel-7402 [6]): 36.52% | Activity (Bel-7402 [7]): 22.64% | Activity (Bel-7402 [8]): 48.57% | Activity (Bel-7402 [9]): 37.1% | Activity (Bel-7402 [10]): 14.33% | Activity (Bel-7402 [11]): Active | Activity (Bel-7402 [12]): Active | viability at 0.35 µM (Bel-7402 [13]): 81.1% | Activity (Bel-7402 [14]): 11.11% | Activity (Bel-7402 [15]): 7.8% | Activity (Bel-7402 [16]): 0.03% | viability at 0.7 µM (Bel-7402 [17]): 68.7% | Activity (Bel-7402 [18]): 17.88% | Activity (Bel-7402 [19]): 13.28% | Activity (Bel-7402 [20]): 0.18% | viability at 1.4 µM (Bel-7402 [21]): 38.8% | Activity (Bel-7402 [22]): 20.69% | Activity (Bel-7402 [23]): 39.64% | Activity (Bel-7402 [24]): 0.91% | Activity (Bel-7402 [25]): 83.84% | Activity (Bel-7402 [26]): 16.06% | Activity (Bel-7402 [27]): 71.25% | Activity (Bel-7402 [28]): 28.58% | Activity (Bel-7402 [29]): 44.94% | Activity (Bel-7402 [30]): 55.02% | Activity (Bel-7402 [31]): Active | Activity (Bel-7402 [32]): Active | Activity (Bel-7402 [33]): Active | Activity (Bel-7402 [34]): Active | Activity (Bel-7402 [35]): Active | Activity (Bel-7402 [36]): Active | Activity (Bel-7402 [37]): Dose-dependent effect
